According to patent publication US20060293307A1, “Oxazolidinone derivatives as antimicrobials” (priority 2002, published 2006):
In brackets after ≈: the same amount, converted by molar mass.

What was measured:
[1] = system: S. aureus ATCC 25923; test: MIC, agar incorporation method; format: cell-based, Staphylococcus aureus
[2] = system: S. aureus (MRSA) 15187; test: MIC, agar incorporation method; format: cell-based, Staphylococcus aureus
[3] = system: S. aureus (MRSA) 21299; test: MIC, agar incorporation method; format: cell-based, Staphylococcus aureus
[4] = system: S. aureus (MRSA 33) Cipro R; test: MIC, agar incorporation method; format: cell-based, Staphylococcus aureus
[5] = system: S. epidermidis ATCC 12228; test: MIC, agar incorporation method; format: cell-based, Staphylococcus epidermidis
[6] = system: S. epidermidis (MRSE) 23760; test: MIC, agar incorporation method; format: cell-based, Staphylococcus epidermidis
[7] = system: S. epidermidis 823; test: MIC, agar incorporation method; format: cell-based, Staphylococcus epidermidis
[8] = system: E. faecium 6A (VRE); test: MIC, agar incorporation method; format: cell-based, Enterococcus faecium
[9] = system: E. durans 581; test: MIC, agar incorporation method; format: cell-based
[10] = system: E. coli 25922; test: MIC, agar incorporation method; format: cell-based
[11] = system: K. oxytoca 49131; test: MIC, agar incorporation method; format: cell-based
[12] = system: Acinetobacter 9956; test: MIC, agar incorporation method; format: cell-based
[13] = system: S. pneumoniae AB4; test: MIC, agar incorporation method; format: cell-based, Streptococcus pneumoniae
[14] = system: S. pneumoniae AB 10; test: MIC, agar incorporation method; format: cell-based, Streptococcus pneumoniae
[15] = system: S. pneumoniae AB 31; test: MIC, agar incorporation method; format: cell-based, Streptococcus pneumoniae
[16] = system: S. pneumoniae AB 14; test: MIC, agar incorporation method; format: cell-based, Streptococcus pneumoniae
[17] = system: S. pneumoniae 217; test: MIC, agar incorporation method; format: cell-based, Streptococcus pneumoniae
[18] = system: S. pneumoniae AB 16; test: MIC, agar incorporation method; format: cell-based, Streptococcus pneumoniae
[19] = system: S. pneumoniae AB 21; test: MIC, agar incorporation method; format: cell-based, Streptococcus pneumoniae
[20] = system: S. pneumoniae AB 23; test: MIC, agar incorporation method; format: cell-based, Streptococcus pneumoniae
[21] = system: S. pneumoniae ATCC 6303; test: MIC, agar incorporation method; format: cell-based, Streptococcus pneumoniae
[22] = system: S. pyogenes 20361; test: MIC, agar incorporation method; format: cell-based, Streptococcus pyogenes
[23] = system: S. pneumoniae 1251; test: MIC, agar incorporation method; format: cell-based, Streptococcus pneumoniae
[24] = system: Moraxella M1; test: MIC, agar incorporation method; format: cell-based
[25] = system: Moraxella cata. M2; test: MIC, agar incorporation method; format: cell-based
[26] = system: H. influenzae R; test: MIC against Haemophilus strains; format: cell-based
[27] = system: H. influenzae P318; test: MIC against Haemophilus strains; format: cell-based

Q: Which MIC ([1]; S. No. 1, organism cell empty) does the source give for CC(=O)NC[C@H]1CN(c2ccc(N3CCN(c4ccc([N+](=O)[O-])s4)CC3)cc2)C(=O)O1 [Compound No. 6, (S)—N-[[3-[4-[N-1-(5-nitro-2-thienyl)piperazinyl]-phenyl]-2-oxo-5-oxazolidinyl]-methyl]-acetamide] here?
A: The MIC was 2 µg/mL (≈ 4.49 µM).

Q: And the MIC ([2]; S. No. 4, S. aureus (MRSA) 15187)?
A: The MIC was 2 µg/mL (≈ 4.49 µM).

Q: What about the MIC ([3]; S. No. 5, S. aureus (MRSA) 21299) of the same compound?
A: Its MIC is 1 µg/mL (≈ 2.24 µM).

Q: And the MIC ([4]; S. No. 7, S. aureus (MRSA 33) Cipro R)?
A: Its MIC is 1 µg/mL (≈ 2.24 µM).

Q: And the MIC ([5]; S. No. 10, S. epidermidis ATCC 12228)?
A: Its MIC is 1 µg/mL (≈ 2.24 µM).

Q: And the MIC ([6]; S. No. 11, S. epidermidis (MRSE) 23760)?
A: The MIC was 1 µg/mL (≈ 2.24 µM).

Q: And the MIC ([7]; S. No. 12, S. epidermidis 823)?
A: Its MIC is 1 µg/mL (≈ 2.24 µM).

Q: And the MIC ([8]; S. No. 21, E. faecium 6A (VRE))?
A: Its MIC is 1 µg/mL (≈ 2.24 µM).

Q: And the MIC ([9]; S. No. 24, E. durans 581)?
A: The MIC was 1 µg/mL (≈ 2.24 µM).

Q: What about the MIC ([10]; S. No. 25, E. coli 25922) of the same compound?
A: Its MIC is >16 µg/mL.

Q: What about the MIC ([11]; S. No. 27, K. oxytoca 49131) of the same compound?
A: Its MIC is >16 µg/mL.

Q: What about the MIC ([12]; S. No. 30, Acinetobacter 9956) of the same compound?
A: The MIC was >16 µg/mL.

Q: What about the MIC ([13]; S. No. 33, S. pneumoniae AB4) of the same compound?
A: Its MIC is 0.25 µg/mL (≈ 0.561 µM).

Q: And the MIC ([14]; S. No. 35, S. pneumoniae AB 10)?
A: The MIC was 0.25 µg/mL (≈ 0.561 µM).

Q: And the MIC ([15]; S. No. 36, S. pneumoniae AB 31)?
A: The MIC was 0.5 µg/mL (≈ 1.12 µM).

Q: What about the MIC ([16]; S. No. 37, S. pneumoniae AB 14) of the same compound?
A: The MIC was <0.125 µg/mL.

Q: And the MIC ([17]; S. No. 38, S. pneumoniae 217)?
A: Its MIC is 0.25 µg/mL (≈ 0.561 µM).

Q: What about the MIC ([18]; S. No. 39, S. pneumoniae AB 16) of the same compound?
A: Its MIC is 0.5 µg/mL (≈ 1.12 µM).

Q: And the MIC ([19]; S. No. 41, S. pneumoniae AB 21)?
A: Its MIC is 0.5 µg/mL (≈ 1.12 µM).

Q: What about the MIC ([20]; S. No. 43, S. pneumoniae AB 23) of the same compound?
A: Its MIC is 0.5 µg/mL (≈ 1.12 µM).

Q: And the MIC ([21]; S. No. 50, S. pneumoniae ATCC 6303)?
A: Its MIC is 0.5 µg/mL (≈ 1.12 µM).

Q: And the MIC ([22]; S. No. 53, S. pyogenes 20361)?
A: Its MIC is 0.5 µg/mL (≈ 1.12 µM).

Q: And the MIC ([23]; S. No. 54, S. pneumoniae 1251)?
A: Its MIC is 0.25 µg/mL (≈ 0.561 µM).

Q: And the MIC ([24]; S. No. 58, Moraxella M1)?
A: Its MIC is >16 µg/mL.

Q: And the MIC ([25]; S. No. 59, Moraxella cata. M2)?
A: The MIC was 8 µg/mL (≈ 18 µM).

Q: And the MIC ([26]; s. No. 4, H. influenzae R)?
A: The MIC was 16 µg/mL (≈ 35.9 µM).

Q: And the MIC ([27]; s. No. 10, H. influenzae P318)?
A: Its MIC is 16 µg/mL (≈ 35.9 µM).

Q: For O=C(NC[C@H]1CN(c2ccc(N3CCN(c4ccc([N+](=O)[O-])s4)CC3)c(F)c2)C(=O)O1)C(F)F [Compound No. 8, (S)—N-[[3-[3-Fluoro-4-[4-(5-nitro-2-thienyl)-1-piperazinyl]phenyl]-2-oxo-5-oxazolidinyl]methyl]difluoroacetamide], which MIC ([1]; Staphylococcus aureus, ATCC25923) is on record?
A: Its MIC is 2 µg/mL (≈ 4 µM).

Q: What about the MIC ([2]; Staphylococcus aureus, MRSA) of the same compound?
A: The MIC was 2 µg/mL (≈ 4 µM).

Q: What about the MIC ([3]; Staphylococcus aureus, MRSA) of the same compound?
A: Its MIC is 2 µg/mL (≈ 4 µM).

Q: What about the MIC ([4]; Staphylococcus aureus, MRSA) of the same compound?
A: The MIC was 2 µg/mL (≈ 4 µM).

Q: And the MIC ([5]; Staphylococcus epidermidis, ATCC12228)?
A: The MIC was 0.125 µg/mL (≈ 0.25 µM).

Q: What about the MIC ([6]; Staphylococcus epidermidis, MRSE) of the same compound?
A: Its MIC is 0.25 µg/mL (≈ 0.501 µM).

Q: And the MIC ([7]; Staphylococcus epidermidis, 823)?
A: Its MIC is 0.25 µg/mL (≈ 0.501 µM).

Q: And the MIC ([8]; Enterococcus faecium, VRE)?
A: Its MIC is 1 µg/mL (≈ 2 µM).

Q: What about the MIC ([9]; Enterococcus durans, 581) of the same compound?
A: The MIC was 0.25 µg/mL (≈ 0.501 µM).

Q: What about the MIC ([10]; Escherichia coli, 25922) of the same compound?
A: Its MIC is > 8 µg/mL.

Q: And the MIC ([11]; Klebsiella oxytoca, 49131)?
A: The MIC was > 8 µg/mL.

Q: And the MIC ([12]; Acinetobacter, 9956)?
A: Its MIC is 8 µg/mL (≈ 16 µM).

Q: What about the MIC ([13]; Streptococcus pneumoniae, AB4) of the same compound?
A: Its MIC is 0.125 µg/mL (≈ 0.25 µM).

Q: What about the MIC ([14]; Streptococcus pneumoniae, AB10) of the same compound?
A: The MIC was 0.125 µg/mL (≈ 0.25 µM).

Q: What about the MIC ([15]; Streptococcus pneumoniae, AB31) of the same compound?
A: Its MIC is 0.25 µg/mL (≈ 0.501 µM).

Q: And the MIC ([16]; Streptococcus pneumoniae, AB14)?
A: Its MIC is 0.25 µg/mL (≈ 0.501 µM).

Q: What about the MIC ([17]; Streptococcus pneumoniae, 217) of the same compound?
A: Its MIC is 0.25 µg/mL (≈ 0.501 µM).

Q: What about the MIC ([18]; Streptococcus pneumoniae, AB16) of the same compound?
A: Its MIC is 0.25 µg/mL (≈ 0.501 µM).

Q: What about the MIC ([19]; Streptococcus pneumoniae, AB21) of the same compound?
A: Its MIC is 0.25 µg/mL (≈ 0.501 µM).

Q: And the MIC ([20]; Streptococcus pneumoniae, AB23)?
A: Its MIC is 0.25 µg/mL (≈ 0.501 µM).

Q: What about the MIC ([21]; Streptococcus pneumoniae, ATCC6303) of the same compound?
A: The MIC was 0.25 µg/mL (≈ 0.501 µM).

Q: What about the MIC ([22]; Streptococcus pyogenes, 20361) of the same compound?
A: The MIC was 0.25 µg/mL (≈ 0.501 µM).

Q: And the MIC ([23]; Streptococcus pneumoniae, 1251)?
A: Its MIC is 0.25 µg/mL (≈ 0.501 µM).

Q: What about the MIC ([24]; Moraxella, M1) of the same compound?
A: Its MIC is 1 µg/mL (≈ 2 µM).

Q: What about the MIC ([25]; Moraxella, CATA.M2) of the same compound?
A: Its MIC is 1 µg/mL (≈ 2 µM).

Q: And the MIC ([26]; Haemophilus influenzae)?
A: The MIC was > 16 µg/mL.

Q: What about the MIC ([27]; Haemophilus influenzae, P318) of the same compound?
A: The MIC was > 16 µg/mL.
